Test results reported in patent publication US8101601B2, “Aminoacyl prodrug derivatives and medicaments for the treatment of thromboembolitic disorders” (Bayer Pharma Aktiengesellschaft, priority 2007, dated 2012).
Structures can show the parent of a compound that is named as a salt.

Legend:
[1] = Stability in buffer at various pH values (HPLC, 37° C., 24 h); assay type: physicochemical
Procedure: 0.3 mg of the test substance is weighed into a 2 ml HPLC vial and 0.5 ml of acetonitrile is added. The substance is dissolved by putting the sample vessel in an ultrasonic bath for about 10 seconds. Then 0.5 ml of the respective buffer solution is added, and the sample is again treated in the ultrasonic bath.
• pH 4.0:1 liter of Millipore water is adjusted to pH 4.0 with 1 N hydrochloric acid; • pH 7.4: 90 g of sodium chloride, 13.61 g of potassium dihydrogen phosphate and 83.35 g of 1 M sodium hydroxide solution are made up to 1 liter with Millipore water and then diluted 1:10.
5 μl portions of the test solution are analysed by HPLC for their content of unchanged test substance every hour over a period of 24 hours at 37° C. The percentage areas of the appropriate peaks are used for quantification.
Agilent 1100 with DAD (G1314A), binary pump (G1312A), autosampler (G1329A), column oven (G1316A), thermostat (G1330A); column: Kromasil 100 C18, 125 mm×4.6 mm, 5 μm; column temperature: 30° C.; eluent A: water+5 ml of perchloric acid/liter, eluent B: acetonitrile.
The ratios of the peak areas (F) at the respective time points in relation to the peak areas at the starting time are shown in Table 2 for representative exemplary embodiments: […]

[2] = In vitro stability in rat plasma (LC/MS-MS detection); assay type: in vitro ADME, Wistar rats; conditions: Wistar rat plasma, 37° C.
Procedure: A defined plasma volume (e.g. 2.0 ml) is warmed to 37° C. in a closed test tube in a waterbath. After the intended temperature is reached, a defined amount of the test substance is added as solution (volume of the solvent not more than 2% of the plasma volume). The plasma is shaken and a first sample (50-100 μl) is immediately taken. Then 4-6 further aliquots are taken in the period up for 2 h after the start of incubation.
Acetonitrile is added to the plasma samples to precipitate proteins. After centrifugation, the test substance and, where appropriate, known cleavage products of the test substance in the supernatant are determined quantitatively with a suitable LC/MS-MS method.
The concentrations c of the compound of Example 6 and of the active ingredient compound (A) liberated therefrom determined at various times in the plasma of Wistar rats are shown in Table 3:
The concentrations c of the compound of Example 13 and of the active ingredient compound (A) liberated therefrom determined at various times in the plasma of Wistar rats are shown in Table 4: […]

[3] = Determination of the solubility (suspension shaken 24 h at room temperature, HPLC); assay type: physicochemical; conditions: thermodynamic from solid
Procedure: […] This suspension is shaken at room temperature for 24 h. After ultracentrifugation at 224 000 g for 30 min, the supernatant is diluted with DMSO and analysed by HPLC. A two-point calibration plot of the test compound in DMSO is used for quantification.
Agilent 1100 with DAD (G1315A), quat. pump (G1311A), autosampler CTC HTS PAL, degasser (G1322A) and column thermostat (G1316A); column: Zorbax Extend-C18 3.5μ; temperature: 40° C.; eluent A: water+5 ml of perchloric acid/liter, eluent B: acetonitrile; flow rate: 0.7 ml/min; gradient: 0-0.5 min 98% A, 2% B; ramp 0.5-4.5 min 10% A, 90% B; 4.5-6 min 10% A, 90% B; ramp 6.5-6.7 min 98% A, 2% B; 6.7-7.5 min 98% A, 2% B.

[4] = In vitro stability in rat plasma (HPLC detection); assay type: in vitro ADME; conditions: 37° C., read-out: half-life of degradation to liberate compound (A)
Procedure: 1 mg of substance is dissolved in 1.25 ml of dimethyl sulphoxide. Then 1.25 ml of water are added. 500 μl of this sample solution are mixed with 500 μl of rat plasma at 37° C. and shaken. A first sample (10 μl) is immediately taken for HPLC analysis. In the period up to 2 h after the start of incubation, further aliquots are taken after 2, 5, 10, 30, 60 and 90 min, and the content of the respective test substance and of the active ingredient compound (A) liberated therefrom is determined.
Agilent 1100 with DAD (G1314A), binary pump (G1312A), autosampler (G1329A), column oven (G1316A), thermostat (G1330A); column: Kromasil 100 C18, 250 mm×4.6 mm, 5 μm; column temperature: 30° C.; eluent A: water+5 ml of perchloric acid/liter, eluent B: acetonitrile.

[5] = buffer pH 4, 37° C., hydrochloride
[6] = 5% dextrose adjusted to pH 4 with hydrochloric acid, pH 4, saline or isotonic

Row | Compound | % test substance after 4 h [F(t = 4 h) × 100/F(t = 0 h)] ([1]; buffer pH 4, 37° C.) [%] | % Test substance after 24 h [F(t = 24 h) × 100/F(t = 0 h)] ([1]; buffer pH 4, 37° C.) [%] | % test substance after 4 h [F(t = 4 h) × 100/F(t = 0 h)] ([1]; buffer pH 7.4, 37° C.) [%] | % Test substance after 24 h [F(t = 24 h) × 100/F(t = 0 h)] ([1]; buffer pH 7.4, 37° C.) [%] | c of test substance ([2]; incubation time 0 h) [mg/L] | c of test substance ([2]; incubation time 0.08 h) [mg/L] | c of test substance ([2]; incubation time 0.17 h) [mg/L] | solubility at 24 h ([3]; dilute hydrochloric acid (pH 4), pH 4, aqueous buffer, room temperature, 24 h) [µg/mL] | half-life at 0.2 mg/ml [4] [min] | % test substance after 4 h [F(t = 4 h) × 100/F(t = 0 h)] [1, 5] [%] | % Test substance after 24 h [F(t = 24 h) × 100/F(t = 0 h)] [1, 5] [%] | solubility at 24 h [3, 6] [µg/mL]
1 | CC(C)[C@@H](N)C(=O)OCC(=O)N(C[C@H]1CN(c2ccc(N3CCOCC3=O)cc2)C(=O)O1)C(=O)c1ccc(Cl)s1 [Example 6, 2-[[(5-Chloro-2-thienyl)carbonyl]({(5S)-2-oxo-3-[4-(3-oxomorpholin-4-yl)phenyl]-1,3-oxazolidin-5-yl}methyl)amino]-2-oxoethyl D-valinate hydrochloride] | 100 | 98 | 90 | 59 | 0.403 | 0.0756 | 0.0079 | 860 | – | – | – | –
2 | CNCCCC(=O)N(C[C@H]1CN(c2ccc(N3CCOCC3=O)cc2)C(=O)O1)C(=O)c1ccc(Cl)s1 [Example 13, 5-Chloro-N-[4-(methylamino)butanoyl]-N-({(5S)-2-oxo-3-[4-(3-oxomorpholin-4-yl)phenyl]-1,3-oxazolidin-5-yl}methyl)thiophene-2-carboxamide hydrochloride] | – | – | – | – | 0.5 | – | – | – | < 2 | 99 | 91 | 2700
3 | CNCCCCC(=O)N(C[C@H]1CN(c2ccc(N3CCOCC3=O)cc2)C(=O)O1)C(=O)c1ccc(Cl)s1 [Example 17, 5-Chloro-N-[5-(methylamino)pentanoyl]-N-({(5S)-2-oxo-3-[4-(3-oxomorpholin-4-yl)phenyl]-1,3-oxazolidin-5-yl}methyl)thiophene-2-carboxamide hydrochloride] | – | – | – | – | – | – | – | – | < 2 | 83 | 55 | –
4 | NCCCCC(=O)N(C[C@H]1CN(c2ccc(N3CCOCC3=O)cc2)C(=O)O1)C(=O)c1ccc(Cl)s1 [Example 20, N-(5-Aminopentanoyl)-5-chloro-N-({(5S)-2-oxo-3-[4-(3-oxomorpholin-4-yl)phenyl]-1,3-oxazolidin-5-yl}methyl)thiophene-2-carboxamide hydrochloride] | 98 | 90 | 0 | 0 | – | – | – | – | < 2 | – | – | > 3000
5 | CCCCNCCCC(=O)N(C[C@H]1CN(c2ccc(N3CCOCC3=O)cc2)C(=O)O1)C(=O)c1ccc(Cl)s1 [Example 22, N-[4-(Butylamino)butanoyl]-5-chloro-N-({(5S)-2-oxo-3-[4-(3-oxomorpholin-4-yl)phenyl]-1,3-oxazolidin-5-yl}methyl)thiophene-2-carboxamide hydrochloride] | 100 | 98 | – | – | – | – | – | – | < 2 | – | – | > 3000
6 | NCCOCC(=O)N(C[C@H]1CN(c2ccc(N3CCOCC3=O)cc2)C(=O)O1)C(=O)c1ccc(Cl)s1 [Example 23, N-[(2-Aminoethoxy)acetyl]-5-chloro-N-({(5S)-2-oxo-3-[4-(3-oxomorpholin-4-yl)phenyl]-1,3-oxazolidin-5-yl}methyl)thiophene-2-carboxamide hydrochloride] | – | – | – | – | – | – | – | – | < 2 | – | – | –
